According to patent publication US20240389600A1 (The United States of America, as represented by the …, priority 2023, published 2024):
Like-named read-outs stand apart in the source and are kept apart here.

What was measured:
Georgia-06G peanut seeds [1] = conditions: 20° C.
Georgia-06G peanut seeds [2] = assay: Static incubation of hydrated peanut seeds with H2O2; resveratrol content by HPLC; conditions: for resveratrol content in seeds: 48 and 72-h incubation
Georgia-06G peanut seeds [3] = conditions: 3% H2O2 replaced every 24 h, seed to liquid 1:8 w/v, 20° C., 72 h, Georgia-06G (2021 harvest)

OO [H2O2, hydrogen peroxide]
resveratrol accumulation (Georgia-06G peanut seeds [1]; 2% H2O2, in-shaker, after 72 h, Georgia-06G 2021): exceeding 300 μg/g of seed dry weight | resveratrol concentration (Georgia-06G peanut seeds [1]; 3% H2O2 replaced every 24 h, seed to liquid 1:4 w/v, shaker, 72 h, Georgia-06G (2021 harvest)): 400 µg/g | concentration of resveratrol in seed extract chromatogram (Georgia-06G peanut seeds [1]; 3 portions of 3% H2O2 (new charge every 24 h), shaker, 72 h, Georgia-06G 2021): 334 μg/g of dry weight | resveratrol content in seeds (Georgia-06G peanut seeds [2]; 2% H2O2, 20° C., Georgia-06G (2021 harvest), FIG. 13): 100 to 200 µg/g | resveratrol production under moderate acidic conditions (Georgia-06G peanut seeds [2]; 2% H2O2, 20° C., static, acidic conditions, Georgia-06G 2020 harvest): almost completely blocked resveratrol production | levels of resveratrol in seeds (Georgia-06G peanut seeds [2]; 3% H2O2, static, 15° C., after 72 and 96 h, Georgia-06G (2021 harvest)): 20 to 50 µg/g | resveratrol content in seeds (Georgia-06G peanut seeds [2]; static, 20° C., Georgia-06G (2021 harvest), FIG. 11C): 50 to 100 µg/g | concentration of H2O2 that damages seeds (overall production of resveratrol drops, particularly after 72 h) (Georgia-06G peanut seeds [2]; static, 20° C., seeds to H2O2 1:6 w/v, Georgia-06G 2021): above 4% | resveratrol concentration (Georgia-06G peanut seeds [3]): 600 µg/g
